Where “and” joins values, the source holds several entries; their conditions need not be identical. Equal values may be shown once.
Tested on: 276233-004-R-J1-PDC complex spheroid viability
Test: Anticancer human tumor 276233-004-R-J1-PDC patient-derived colon adenocarcinoma cell line growth inhibition [GQUAD]
Details: for viability, T/C: stronger effect = lower value; active means viability on the fitted dose curve at most 10% of control; inactive means the rest
Description: DNA G-quadruplex Stabilizer Agents in Combinations in Complex Spheroids
A high-throughput screen of multi-cell type tumor spheroids was designed to identify active combinations of DNA G-quadruplex stabilizer agents and targeted small molecules. Complex spheroids include a stromal component modeled by human endothelial cells (HUVEC) and fibroblasts modeled by human mesenchymal stem cells (MSCs). The concentration ranges selected for each drug and investigational agent were based upon clinically achievable concentrations if the clinical Cmax of the agent was known.
Compounds. The drugs and investigational agents: pidnarulex (CX-5461; NSC782164), APTO-253 (NSC789042), BRACO-19 (NSC847499), peposertib (NSC802822), ceralasertib (NSC780249), elimusertib (NSC800525), camonsertib (NSC841442), AZD-1390 (NSC803789), olaparib (NSC753686), talazoparib (NSC767125), ART-558 (NSC835418), sotorasib (NSC818433), MRTX-1133 (NSC836407), SN-38 (NSC673596), topotecan (NSC609699), etoposide (NSC141540), doxorubicin (NSC123127), gemcitabine (NSC613327), 5-fluorouracil (NSC19893), paclitaxel (NSC125973), vemurafenib (NSC761431), panobinostat (NSC761190), R-306465 (JNJ-16241199; NSC773264), adavosertib (NSC754352), TP-3654 (NSC805149), carboplatin (NSC241240), KSQ-4279 (NSC840948), and staurosporine (NSC755774) were obtained from the National Cancer Institute (NCI) Developmental Therapeutics Program Chemical Repository (34). The FDA-approved anticancer drug set is available from the NCI Developmental Therapeutics Program. […] The stock solutions were prepared in dimethyl sulfoxide (DMSO, Sigma-Aldrich, St. Louis, MO, cat. D2650) at 800-fold the tested concentration and stored at -70 degrees C prior to their use. All drugs and investigational agents were tested over a range starting from a high concentration at or near the clinical Cmax and decreasing in half-log increments. If the clinical Cmax for an agent had not been determined, the highest concentration tested was 10 microM.
2.3 Cell Culture. All cells were maintained in an incubator at 37 degrees C and 5% CO2 with 95% humidity. The PDC lines were cultured according to standard operating procedures established by the NCI PDMR. All PDCs were thawed and cultured in Matrigel-coated flasks prepared with a working solution of 1X Ham's F-12 nutrient mix, without supplementation (Invitrogen, cat. 11765054), 100 U/mL penicillin-streptomycin (Invitrogen, cat. 15140122), and 2.5% Matrigel (Corning Inc., cat. 354248) for the first three passages. The 857933-349-R-J2-PDC line was cultured in 6C/Colon 1B media, which includes advanced DMEM/F-12 (Thermo Fisher Scientific, cat. 12634028), 10 mM HEPES (Thermo Fisher Scientific, cat. 15630080), 1X GlutaMAX supplement (Thermo Fisher Scientific, cat. 35050061), 0.1 mg/mL primocin (InvivoGen, cat. ant-pm-2), 10% defined fetal bovine serum, heat inactivated (HyClone Laboratories Inc., cat. SH30070.03HI), 50% L-WRN conditioned media (ATCC, cat. CRL-3276), 1.25 mM N-Acetyl-L-cysteine (Sigma-Aldrich, cat. A9165), 10 mM nicotinamide (Sigma-Aldrich, cat. N0636), 1X B-27 supplement (Thermo Fisher Scientific, cat. 17504044), 1X N-2 supplement (Thermo Fisher Scientific, cat. 17502048), 10 microM Y-27632 dihydrochloride (Tocris Bioscience, cat. 1254), and 50 ng/mL human EGF recombinant protein (Thermo Fisher Scientific, cat. PHG0311). The 485176-168-R4-J1-PDC line was cultured in Panc media, which includes all 6C/Colon 1B media components plus 100 ng/mL human FGF-10 (Thermo Fisher Scientific, cat. 100-26), 500 nM SB-431542 (Selleckchem, cat. S1067), and gastrin (Tocris, cat. 3006).
[…]

[1] = curve of first compound, second compound 0.0316 µM
[2] = curve of first compound, second compound 0.1 µM
[3] = curve of first compound, second compound 0.316 µM
[4] = curve of first compound, second compound 1 µM
[5] = curve of first compound, second compound 3.16 µM
[6] = curve of first compound, second compound 10 µM
[7] = second compound 0.0316 µM, first compound 0.0316 µM
[8] = second compound 0.0316 µM, first compound 0.1 µM
[9] = second compound 0.0316 µM, first compound 0.316 µM
[10] = second compound 0.0316 µM, first compound 1 µM
[11] = second compound 0.0316 µM, first compound 3.16 µM
[12] = second compound 0.0316 µM, first compound 10 µM
[13] = second compound 0.1 µM, first compound 0.0316 µM
[14] = second compound 0.1 µM, first compound 0.1 µM
[15] = second compound 0.1 µM, first compound 0.316 µM
[16] = second compound 0.1 µM, first compound 1 µM
[17] = second compound 0.1 µM, first compound 3.16 µM
[18] = second compound 0.1 µM, first compound 10 µM
[19] = second compound 0.316 µM, first compound 0.0316 µM
[20] = second compound 0.316 µM, first compound 0.1 µM
[21] = second compound 0.316 µM, first compound 0.316 µM
[22] = second compound 0.316 µM, first compound 1 µM
[23] = second compound 0.316 µM, first compound 3.16 µM
[24] = second compound 0.316 µM, first compound 10 µM
[25] = second compound 1 µM, first compound 0.0316 µM
[26] = second compound 1 µM, first compound 0.1 µM
[27] = second compound 1 µM, first compound 0.316 µM
[28] = second compound 1 µM, first compound 1 µM
[29] = second compound 1 µM, first compound 3.16 µM
[30] = second compound 1 µM, first compound 10 µM
[31] = second compound 3.16 µM, first compound 0.0316 µM
[32] = second compound 3.16 µM, first compound 0.1 µM
[33] = second compound 3.16 µM, first compound 0.316 µM
[34] = second compound 3.16 µM, first compound 1 µM
[35] = second compound 3.16 µM, first compound 3.16 µM
[36] = second compound 3.16 µM, first compound 10 µM
[37] = second compound 10 µM, first compound 0.0316 µM
[38] = second compound 10 µM, first compound 0.1 µM
[39] = second compound 10 µM, first compound 0.316 µM
[40] = second compound 10 µM, first compound 1 µM
[41] = second compound 10 µM, first compound 3.16 µM
[42] = second compound 10 µM, first compound 10 µM
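Further: spheroids exposed to drugs for seven days.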

CC(C)(O)C1CCC(Nc2ccc3ncc(-c4cccc(C(F)(F)F)c4)n3n2)CC1 (stereo not drawn) + Cc1cnc(CNC(=O)c2c(=O)c3ccc(N4CCCN(C)CC4)nc3n3c2sc2ccccc23)cn1
3 µM: IC50 [4]
inactive: viability, T/C [7] 94.9% | viability, T/C [8] 79.8% | viability, T/C [9] 81.8% | viability, T/C [10] 70.6% | viability, T/C [11] 55.2% | viability, T/C [12] 58.8% | viability, T/C [13] 83.2% | viability, T/C [14] 109% | viability, T/C [15] 78.4% | viability, T/C [16] 68.9% | viability, T/C [17] 49.4% | viability, T/C [18] 55.6% | viability, T/C [19] 84.3% | viability, T/C [20] 92.5% | viability, T/C [21] 83.7% | viability, T/C [22] 63.1% | viability, T/C [23] 54% | viability, T/C [24] 49.5% | viability, T/C [25] 80.4% | viability, T/C [26] 89.2% | viability, T/C [27] 84.7% | viability, T/C [28] 67.7% | viability, T/C [29] 50.4% | viability, T/C [30] 45.4% | viability, T/C [31] 79.9% | viability, T/C [32] 74.3% | viability, T/C [33] 69.8% | viability, T/C [34] 51.1% | viability, T/C [35] 34.7% | viability, T/C [36] 39.1% | viability, T/C [37] 75.6% | viability, T/C [38] 57% | viability, T/C [39] 58.6% | viability, T/C [40] 50.5%
active: viability, T/C [41] 7.86% | viability, T/C [42] 3.2%
> 10 µM: IC50 [1] | IC50 [2] | IC50 [3]
0.995 µM: IC50 [6]
0.994 µM: IC50 [5]

CCCS(=O)(=O)Nc1ccc(F)c(C(=O)c2c[nH]c3ncc(-c4ccc(Cl)cc4)cc23)c1F + Cc1[nH]c2ccc(F)cc2c1-c1nc2c3cccnc3c3ncccc3c2[nH]1
inactive: viability, T/C [7] 99.6% | viability, T/C [8] 82.8% | viability, T/C [9] 83.3% | viability, T/C [10] 101% | viability, T/C [11] 78.8% | viability, T/C [12] 50.8% | viability, T/C [13] 95.7% | viability, T/C [14] 81.7% | viability, T/C [15] 80.7% | viability, T/C [16] 78.5% | viability, T/C [17] 59.7% | viability, T/C [18] 61.2% | viability, T/C [19] 74.3% | viability, T/C [20] 71.2% | viability, T/C [21] 63.9% | viability, T/C [22] 65.3% | viability, T/C [23] 55% | viability, T/C [24] 61.9% | viability, T/C [25] 52.9% | viability, T/C [26] 41.3% | viability, T/C [27] 44.2% | viability, T/C [28] 50.1% | viability, T/C [29] 61.9% | viability, T/C [30] 37.7% | viability, T/C [31] 18.2% | viability, T/C [32] 12.9% | viability, T/C [33] 27.3% | viability, T/C [34] 15.5% | viability, T/C [35] 20.9% | viability, T/C [36] 13.1% | viability, T/C [37] 31.9% | viability, T/C [38] 35.4% | viability, T/C [39] 42.6% | viability, T/C [40] 30.3% | viability, T/C [41] 41.4% | viability, T/C [42] 27.5%
< 0.0316 µM: IC50 [4] | IC50 [5] | IC50 [6]
> 10 µM: IC50 [1] | IC50 [2] | IC50 [3]

CC1COCCN1c1cc(C2(S(C)(=N)=O)CC2)nc(-c2ccnc3[nH]ccc23)n1 (stereo not drawn) + Cc1[nH]c2ccc(F)cc2c1-c1nc2c3cccnc3c3ncccc3c2[nH]1
0.424 µM: IC50 [6]
inactive: viability, T/C [7] 96.4% | viability, T/C [8] 83% | viability, T/C [9] 110% | viability, T/C [10] 89.6% | viability, T/C [11] 87.1% | viability, T/C [12] 67.3% | viability, T/C [13] 76.6% | viability, T/C [14] 101% | viability, T/C [15] 85.8% | viability, T/C [16] 90.1% | viability, T/C [17] 75% | viability, T/C [18] 74.1% | viability, T/C [19] 97.3% | viability, T/C [20] 79.8% | viability, T/C [21] 97.7% | viability, T/C [22] 70.1% | viability, T/C [23] 74.6% | viability, T/C [24] 63.6% | viability, T/C [25] 80.3% | viability, T/C [26] 79% | viability, T/C [27] 85.4% | viability, T/C [28] 76.1% | viability, T/C [29] 64.3% | viability, T/C [30] 57.4% | viability, T/C [31] 56.2% | viability, T/C [32] 58.6% | viability, T/C [33] 55.9% | viability, T/C [34] 50.1% | viability, T/C [35] 53.6% | viability, T/C [36] 48.7% | viability, T/C [37] 47.9% | viability, T/C [38] 49.5% | viability, T/C [39] 47.5% | viability, T/C [40] 58.2% | viability, T/C [41] 44% | viability, T/C [42] 36.3%
> 10 µM: IC50 [1] | IC50 [2] | IC50 [3] | IC50 [4]
7.86 µM: IC50 [5]

O=c1[nH]cc(F)c(=O)[nH]1
inactive: viability, T/C (compound 0.0316 µM) 98.2% and 108% and 102% | viability, T/C (compound 0.1 µM) 71.6% and 81.3% and 94.7% | viability, T/C (compound 0.316 µM) 89.2% and 90.9% and 103% | viability, T/C (compound 1 µM) 88.4% and 88.3% and 106% | viability, T/C (compound 3.16 µM) 84.1% and 90.3% and 83.7% | viability, T/C (compound 10 µM) 101% and 97.9% and 113%
> 10 µM: IC50 (curve of compound)

Cc1[nH]c2ccc(F)cc2c1-c1nc2c3cccnc3c3ncccc3c2[nH]1
1.35 µM [middle of 4 runs]: IC50 (compound alone, run of 02/26/2024)
inactive: viability, T/C (compound 0.316 µM) 80.8% [middle of 12 runs] | viability, T/C (compound 1 µM) 73.4% [middle of 12 runs] | viability, T/C (compound 10 µM) 44.4% [middle of 12 runs]
2.51 µM [middle of 8 runs]: IC50 (compound alone, run of 02/20/2024)
